Read-outs that look alike come from different tables or passages of the source.
Assays:
COX-II = target: T1, COX-II (Homo sapiens, UniProt P35354); experiment: Whole blood assay for COX-II (LPS-induced PGE2 production); type: cell-based
T1 construct: lipopolysaccharide for 24 hr at 37° C. for induction of COX-II; endogenous in cells; host or cells: heparinized fresh human whole blood from volunteers, LPS-stimulated for 24 hr (PGE2 read-out)
T1 sequence (P35354 18-604): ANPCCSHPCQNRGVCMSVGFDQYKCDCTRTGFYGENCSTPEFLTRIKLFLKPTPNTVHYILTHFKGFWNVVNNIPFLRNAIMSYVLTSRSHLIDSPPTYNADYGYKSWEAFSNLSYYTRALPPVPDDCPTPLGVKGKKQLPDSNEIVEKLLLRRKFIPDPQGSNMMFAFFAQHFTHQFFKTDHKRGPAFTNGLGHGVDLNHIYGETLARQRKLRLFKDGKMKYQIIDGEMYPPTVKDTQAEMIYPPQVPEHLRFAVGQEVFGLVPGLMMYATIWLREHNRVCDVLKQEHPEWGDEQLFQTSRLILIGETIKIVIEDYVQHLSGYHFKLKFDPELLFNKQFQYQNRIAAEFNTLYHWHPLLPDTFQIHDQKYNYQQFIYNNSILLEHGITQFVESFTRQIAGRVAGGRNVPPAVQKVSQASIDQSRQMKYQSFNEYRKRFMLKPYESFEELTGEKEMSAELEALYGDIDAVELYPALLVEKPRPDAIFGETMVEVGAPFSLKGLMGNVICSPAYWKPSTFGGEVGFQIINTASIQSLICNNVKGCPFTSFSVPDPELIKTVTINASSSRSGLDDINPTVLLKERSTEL
Protocol: Fresh blood was collected in heparinized tubes by syringe from volunteers with consent. The subjects had no apparent inflammatory conditions and had not taken any medication for at least 7 days prior to blood collection. 500 μl aliquots of human whole blood were incubated with either 2 μl dimethyl sulfoxide vehicle or 2 μl of a test compound at final concentrations for 15 min at 37° C. This was followed by incubation of the blood with 10 μl of 5 mg/ml lipopolysaccharide for 24 hr at 37° C. for induction of COX-II. Appropriate PBS treatments (no LPS) were used as blanks. At the end of the incubation, the blood was centrifuged at 6000×g for 5 min at 4° C. to obtain plasma. A 100 μl aliquot of plasma was mixed with 400 μl methanol for protein precipitation. The supernatant was obtained by centrifuging at 6000×g for 5 min at 4° C. and was assayed for prostagrandin E2 (PGE2) using a radioimmunoassay kit after conversion of PGE2 to its methyl oximate derivative according to the manufacturer's procedure. For a test compound, the results were expressed as percent inhibition of PGE2 production relative to control incubations containing dimethyl sulfoxide vehicle. The data were analyzed by that a test compound at the indicated concentrations was changed log value and was applied simple linear regression. IC50 value was calculated by least squares method.

COX-I = target: T2, COX-I (Homo sapiens, UniProt P23219); experiment: Whole blood assay for COX-I (TXB2 production); type: cell-based
T2 construct: Fresh blood was collected by syringe without anticoagulants from volunteers with consent; endogenous in cells; host or cells: fresh human whole blood from volunteers, left to clot (TXB2 read-out)
T2 sequence (P23219 24-599): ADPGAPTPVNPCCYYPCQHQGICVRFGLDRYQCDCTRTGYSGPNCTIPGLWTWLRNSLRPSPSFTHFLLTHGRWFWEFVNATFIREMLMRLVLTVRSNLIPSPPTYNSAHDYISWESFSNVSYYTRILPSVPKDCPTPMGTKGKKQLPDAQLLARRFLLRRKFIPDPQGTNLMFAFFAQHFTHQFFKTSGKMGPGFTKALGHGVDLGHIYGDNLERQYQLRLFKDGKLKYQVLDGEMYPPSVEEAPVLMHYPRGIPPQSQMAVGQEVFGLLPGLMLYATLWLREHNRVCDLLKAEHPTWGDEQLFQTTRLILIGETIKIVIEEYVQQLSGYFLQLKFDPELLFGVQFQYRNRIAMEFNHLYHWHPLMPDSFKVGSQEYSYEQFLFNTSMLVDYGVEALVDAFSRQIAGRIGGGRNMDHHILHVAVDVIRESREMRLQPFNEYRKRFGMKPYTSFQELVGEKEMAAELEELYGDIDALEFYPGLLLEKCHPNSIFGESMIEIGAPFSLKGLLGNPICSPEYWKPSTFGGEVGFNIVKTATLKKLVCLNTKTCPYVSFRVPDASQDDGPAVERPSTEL
Protocol: Fresh blood was collected by syringe without anticoagulants from volunteers with consent. The subjects had no apparent inflammatory conditions and had not taken any medication for at least 7 days prior to blood collection. 500 μl aliquots of human whole blood were immediately incubated with 2 μl of either dimethyl sulfoxide vehicle or a test compound at final concentrations for 1 hr at 37° C. to allow the blood to clot. Appropriate treatments (no incubation) were used as blanks. […] The blood was centrifuged at 6000×g for 5 min at 4° C. to obtain serum. A 100 μl aliquot of serum was mixed with 400 μl methanol for protein precipitation. The supernatant was obtained by centrifuging at 6000×g for 5 min at 4° C. and was assayed for TXB2 using an enzyme immunoassay kit according to the manufacturer's procedure. For a test compound, the results were expressed as percent inhibition of thromboxane B2 (TXB2) production relative to control incubations containing dimethyl sulfoxide vehicle. The data were analyzed by that a test compound at the indicated concentrations was changed log value and was applied simple linear regression. IC50 value was calculated by least squares method.

[1] = test system: stomachs (gastric lesions) of rats; experiment: Gastric ulcerogenic activity in rats; type: in vivo, Male Sprague-Dawley rats; settings: oral, 5 h before autopsy, rats fasted 24 h
Protocol: Male Sprague-Dawley rats were used after a 24 h fast. Drugs were orally administered to groups of 10 rats 5 h before autopsy. The stomachs were macroscopically inspected and scored as follows: 0, no evidence of gastric lesions; 1, spotty submucosal hemorrhage or appearance of erosion; 3, widespread adherence of blood and large areas of submucosal hemorrhage or one to four small ulcers; 4, more than four small ulcers or one large ulcer; 5, numerous large ulcers.

[2] = test system: Adjuvant Arthritis in Rats; experiment: Analgesic activity: effect on adjuvant arthritis in rats (Randall-Selitto); type: in vivo, Lewis rats; settings: ratio of threshold pressure of treated vs non-treated rats
[3] = test system: Stretching responses in mice; experiment: Stretching test (acetic acid i.p.); type: in vivo, Male ddY mice; settings: 10 mg/Kg orally, acetic acid i.p. 1 h after drug
Protocol: Male ddY mice were used after a 24 h fast. Drugs were orally administered to groups of 10 mice. Mice were injected intraperitoneally (i.p.) with 0.2 ml/10 g of 0.6% acetic acid 1 h after the drug administration and then placed singly in a plastic animal cage. Stretching responses, defined as constriction of the abdomen with stretching of the hind limbs, were counted for 10 min from 3 min after the i.p. injection of acetic acid.

[4] = LPS 24 hr, read-out: COX-II IC50
[5] = 1 hr at 37° C., read-out: COX-I IC50

IC50 (COX-II; [4]) [µM] | IC50 (COX-I; [5]) [µM] | SMILES | Gastric ulcerogenic activity (Non-toxic dose) [1] [mg/kg] | also measured
– | – | COc1ccc2c(c1)c(CC(=O)O)c(C)n2C(=O)c1ccc(Cl)cc1 [I, Indomethacin] | 1 | –
> 1 | < 0.1 | COc1ccc(-c2cc(C#N)c(Cl)nc2-c2ccc(OC)cc2)cc1 [Example 1-(3), 2-chloro-5-(4-methoxyphenyl)-6-(4-methoxyphenyl) pyridine-3-carbonitrile] | – | –
> 1 | < 0.1 | COc1ccc(-c2cc(C#N)c(OC)nc2-c2ccc(OC)cc2)cc1 [Example 6, 2-methoxy-5-(4-methoxyphenyl)-6-(4-methoxyphenyl)-pyridine-3-carbonitrile] | – | –
– | – | CC(C(=O)O)c1cccc(C(=O)c2ccccc2)c1 (centres unmarked) [G, Ketoprofen] | 3.2 | –
– | – | O=C(O)Cc1ccccc1Nc1c(Cl)cccc1Cl [J, Diclofenac] | 3.2 | –
– | – | COc1ccc(-c2noc(CC(=O)O)c2-c2ccc(OC)cc2)cc1 [H, Mofezolac] | 10 | –

SMILES | IC50 (COX-II; [4]) [µM] | IC50 (COX-I; [5]) [µM] | Gastric ulcerogenic activity (Non-toxic dose) [1] [mg/kg] | also measured
COc1ccc(-c2cc(C#N)cnc2-c2ccc(OC)cc2)cc1 [Example 4, 5-(4-methoxyphenyl)-6-(4-methoxyphenyl)-pyridine-3-carbonitrile] | > 1 | < 0.1 | >100 | IC50 (COX-II; Table 1, read-out: Whole blood assay (IC50: μM) COX-II): 1.9 µM; IC50 (COX-I; Table 1, read-out: Whole blood assay (IC50: μM) COX-I): 0.017 µM; Analgesic activity in adjuvant arthritis -3.2 mg/Kg- ([2]; 3.2 mg/Kg, 2 hr after administration): 1.57; The coefficient of analgesic ([2]; Dose 3.2 mg/kg, pain threshold 2 hr after administration, ratio of 1.5 = effective dose): >1.5; Inhibiting activity in stretching test [3]: 48%; melting point: 107 to 108 °C
